From US10624891B2, “Method of diagnosing and treating skin necroptosis disease comprising RIP3-MLKL pathway blocker” (Ajou University Industry-Academic Cooperation Foundation, priority 2015, dated 2020)
Like-named read-outs stand apart in the source and are kept apart here. Where a SMILES comes first, the peptide text is derived from it. The star is where a group is joined. Cbz = O=C(OCc1ccccc1)*; CH2F = FC*

Columns and labels:
SNP-induced cell death = SNP-induced cell death with ROS scavenger or MAPK pathway inhibitors; type: cell-based; conditions: pretreatment or treatment with inhibitor
Source text: However, as shown in FIGS. 11A and 11B, in cells pretreated with NAC having ROS scavenging ability, SNP-induced cell death was inhibited similarly in Nec-1 treated group (FIG. 11A). From this, it was confirmed again that ROS is associated with SNP-induced cell death. Further, SNP-induced cell death was inhibited by treatment with JNK inhibitor […] (SP), p38 inhibitor sB202190 (SB), and MEK, upstream of ERK, inhibitor PD98059 (PD) (FIG. 11B).

HaCaT cells = assay: SNP-induced cell death in HaCaT cells, MTT assay and phase-contrast microscopy; type: cell-based, human; conditions: for SNP-induced cell death (cell viability, MTT assay): pretreated with 80 μM of Nec-1 and/or 20 μM of zVAD for 1 hour, followed by SNP
Description: Whether SNP-induced cell death is improved by […] necrostatin-1 (Nec-1), and combination treatment of zVAD and Nec-1 was examined in HaCaT cells using MTT assay and phase-contrast microscopy. Cells were pretreated with 80 μM of Nec-1 and/or 20 μM of zVAD for 1 hour, followed by SNP treatment.

[1] = test system: RIP3 overexpressing cells; assay: MLKL phosphorylation inhibition in RIP3 overexpressing cells; type: cell-based, human
Source text: As shown in FIGS. 17A and 17B, the basal phosphorylation of MLKL in RIP3 overexpressing cells, and SNP-induced p-MLKL were eliminated by an RIP3 inhibitor dabrafenib (FIG. 17A).

HaCaT and HEKn = assay: TNFα-induced necroptosis stimuli (TCZ or TSZ) in keratinocytes; type: cell-based, human; conditions: TNFα + zVAD + cyclohexamide or SMAC mimetic
Source text: The immortal human keratinocyte line HaCaT and primary human epidermal keratinocyte isolated from neonatal foreskin (HEKn) responded to prototypical necroptosis stimuli induced by TNFα (TNFα[…]+zVAD+cyclohexamide or SMAC mimetic; also referred to herein as TCZ or TSZ). […] Additionally, from a knockout model, it was confirmed whether RIP3 and RIP1 affect TNF-induced cell death via necroptosis.

## O=C1c2ccccc2-c2n[nH]c3cccc1c23 [SP420119]
SNP-induced cell death
  SNP-induced cell death: inhibited

## COc1cccc(-c2cc(=O)c3ccccc3o2)c1N [PD98059]
SNP-induced cell death
  SNP-induced cell death: inhibited

## CN1C(=O)C(Cc2c[nH]c3ccccc23)NC1=S (stereo not drawn) [Nec-1, necrostatin-1]
HaCaT cells
  SNP-induced cell death (phase-contrast microscopy and Annexin-V staining): inhibited
  SNP-induced cell death (cell viability, MTT assay): reduced
SNP-induced cell death
  SNP-induced cell death: inhibited
HEKn cells; HEKn cells
  protection from acute SNP cytotoxicity / SNP-induced cell death: protected HEKn cells from acute SNP cytotoxicity more effectively than zVAD

## CC(C)(C)c1nc(-c2cccc(NS(=O)(=O)c3c(F)cccc3F)c2F)c(-c2ccnc(N)n2)s1 [dabrafenib]
[1]; SNP treated
  SNP-induced p-MLKL: eliminated
[1]; no SNP
  basal phosphorylation of MLKL: eliminated
HEKn cells
  protection from acute SNP cytotoxicity / SNP-induced cell death: protected HEKn cells from acute SNP cytotoxicity more effectively than zVAD

## CC(=O)N[C@@H](CS)C(=O)O [NAC]
SNP-induced cell death
  SNP-induced cell death: inhibited

## Oc1ccc(-c2nc(-c3ccncc3)c(-c3ccc(F)cc3)[nH]2)cc1 [sB202190]
SNP-induced cell death
  SNP-induced cell death: inhibited

## CC(NC(=O)C(NC(=O)OCc1ccccc1)C(C)C)C(=O)NC(CC(=O)O)C(=O)CF (stereo not drawn) [zVAD] (Cbz-Val-Ala-Asp-CH2F; configuration not given here)
HaCaT cells
  SNP-induced cell death (cell viability, MTT assay): reduced
HaCaT and HEKn
  TNF-induced cell death: did not prevent
  caspase-3 and PARP processing: completely blocked

## COc1nccnc1NS(=O)(=O)c1ccc(NC(=O)/C=C/c2ccc([N+](=O)[O-])s2)cc1 [NSA, necrosulfonamide]
HEKn cells; HEKn cells
  protection from acute SNP cytotoxicity / SNP-induced cell death: protected HEKn cells from acute SNP cytotoxicity more effectively than zVAD
